Experimental findings from article PMC8224697 (Marine Drugs, 2021) are described below.

SMILES strings stand for the structures. Values after ≈ are worked out from the molar mass of the structure shown. “Also recorded” adds a separate entry of the source. Like-named read-outs stand apart in the source and are kept apart here.

In test [1] the target is T1, recombinant ICL cloned from C. albicans ATCC10231 (Candida albicans, UniProt Q9P8Q7).
T1 construct: made in house
The experiment in a line: ICL inhibition assay (glyoxylate phenylhydrazone formation, A324 nm). To be noted: for IC50: purified recombinant ICL, n = 3. It is filed as biochemical. On the procedure: The preparation of recombinant ICL cloned from C. albicans ATCC10231 was performed as described previously. The inhibitory activities of secoemestrin C (1), dethiosecoemestrin (2), emestrin (3), and emestrin B (4) against purified recombinant ICL were evaluated according to a previously documented procedure. The production of ICL-catalyzed glyoxylate phenylhydrazone from phenylhydrazine and isocitrate was measured using a spectrophotometer at an absorbance wavelength of 324 nm.
The preparation of the recombinant ICL protein from C. albicans ATCC10231 was performed as described in a previous paper. We used the two synthetic primers IC-1 (5′-[…]-3′) and IC-2 (5′-[…] […]-3′) to perform a PCR amplification of ICL. The ICL inhibitory activity of the test compounds were evaluated according to a previously described method. The ICL-catalyzed formation of glyoxylate phenylhydrazone from isocitrate and phenylhydrazine substrates was measured using a spectrophotometer at an absorbance wavelength of 324 nm. The inhibitory activity of the test compound was calculated relative to that of the DMSO control (n = 3). We used 3-nitropropionate as a positive control.

For the next test, the system named is C. albicans ATCC10231. Put plainly: microbe, parasite or virus in culture. It is filed as cell-based, Candida albicans. An excerpt:
(§1) The ICL gene was cloned from C. albicans strain ATCC10231 genomic DNA. C. albicans SC5314 (ATCC MYA-2876) (wild type), MRC10 (Δicl) (ICL-deletion mutant), MRC11 (Δicl + ICL) (ICL-complemented mutant), […], ATCC18804, and ATCC11006 were used for the growth assay. The ICL-deletion mutant strains MRC10 and MRC11 were kindly provided by Prof. Michael C. Lorenz (The University of Texas Health Science Center at Houston). Each strain was subcultured in YNB broth (Difco Laboratories, Detroit, MI, USA) supplemented with 2% glucose at 28 °C. For the ICL inhibitor addition, isolated compounds dissolved in DMSO were added to a final solvent concentration of 0.5% in all growth assays.
(§2) The antifungal activity of secoemestrin C (1), dethiosecoemestrin (2), emestrin (3), and emestrin B (4) was evaluated against C. albicans strains (SC5314, ATCC10231, ATCC10259, ATCC11006, and ATCC18804) using a previously documented procedure. The growth of C. albicans was monitored in YNB broth with glucose or potassium acetate as the carbon source. The plates were incubated at 28 °C for 3 days. […] Amphotericin B, an antifungal agent, was applied as a positive control.

The next test relates to C. albicans SC5314. Put plainly: In vitro growth assay (MIC) in YNB broth. In kind it is cell-based, Candida albicans. To be noted: 28 °C.
Excerpt: (§3) Following phagocytosis by macrophages, C. albicans undergoes a metabolic shift from glycolysis to the glyoxylate cycle, enabling cells to utilize C2 carbon sources. Therefore, we hypothesized that the ICL inhibitor reduces nutrient uptake capacity and impedes the survival of C. albicans within macrophages.
as §1, §2

In the next test the test system is C. albicans ATCC10259. The experiment in a line: In vitro growth assay (MIC) in YNB broth. It is filed as cell-based. To be noted: Candida albicans, ATCC10259, 72 h, 28 °C.
Excerpt: as §3, §1, §2

A further test deals with C. albicans ATCC11006. The experiment in a line: In vitro growth assay (MIC) in YNB broth. It is filed as cell-based. To be noted: Candida albicans, ATCC11006, 72 h, 28 °C.
Excerpt: as §3, §1, §2

For another test, the system named is C. albicans ATCC18804. The experiment in a line: In vitro growth assay (MIC) in YNB broth. In kind it is cell-based. The note with it: Candida albicans, ATCC18804, 72 h, 28 °C.
Excerpt: as §3, §1, §2

The subject of test [2] is C. albicans strains (SC5314, ATCC10231, ATCC10259, ATCC11006, and ATCC18804). The experiment in a line: In vitro growth assay (MIC), summary over the strain panel. It is filed as cell-based. To be noted: Candida albicans; C. albicans growing on acetate, over five strains. The procedure: as §3, §2
In test [3] the test system is C. albicans strains SC5314 (wild type), MRC10 (Δicl), and MRC11 (Δicl + ICL). Put plainly: Growth phenotype analysis on YNB agar plates. To be noted: 2 days, 28 °C. It is filed as cell-based, Candida albicans. The procedure:
To determine the effects of secoemestrin C (1) on C. albicans growth under C2–assimilating conditions, phenotypic analyses of ICL-deletion mutants were also performed using C. albicans strains SC5314 (wild type), MRC10 (Δicl), and MRC11 (Δicl + ICL). After pre-culture, each strain was streaked onto YNB agar plates supplemented with glucose or potassium acetate with or without 64 μg/mL secoemestrin C (1).
Figure 3 Inhibitory activity of secoemestrin C (1) toward the growth and ICL mRNA expression of C. albicans. (a) C. albicans strains SC5314 (wild-type), MRC10 (Δicl), and MRC11 (Δicl + ICL) were cultured on YNB agar plates containing 2% glucose or 2% potassium acetate as a carbon source with or without 64 μg/mL secoemestrin C (1) for 2 days at 28 °C. […] ICL mRNA expression was analyzed by RT-PCR. Glyceraldehyde-3-phosphate dehydrogenase (GPDH), a housekeeping gene, was measured as a loading control.
Growth phenotype and ICL expression analysis were performed using C. albicans strains SC5314 (wild type), MRC10 (Δicl), and MRC11 (Δicl + ICL) according to a previously described method. […] Semi-quantitative RT-PCR was conducted using ICL-specific primers: 5′-[…]-3′ (forward) and 5′-TAGATTCAGCTTCA GCCATCAAAGC-3′ (reverse). The expression of the housekeeping gene glyceraldehyde-3-phosphate dehydrogenase (GPDH) was measured as a loading control.

The subject of test [4] is ICL mRNA expression in C. albicans. Put plainly: ICL mRNA expression by semi-quantitative RT-PCR. It is filed as cell-based, Candida albicans. To be noted: cells grown in 2% acetate with 16, 32, or 64 μg/mL compound; 4 h, 28 °C; SC5314 and MRC11. On the procedure: Figure 3 Inhibitory activity of secoemestrin C (1) toward the growth and ICL mRNA expression of C. albicans. (a) C. albicans strains SC5314 (wild-type), MRC10 (Δicl), and MRC11 (Δicl + ICL) were cultured on YNB agar plates containing 2% glucose or 2% potassium acetate as a carbon source with or without 64 μg/mL secoemestrin C (1) for 2 days at 28 °C. (b) Strains were grown in YNB broth containing 2% glucose, collected by centrifugation, and transferred to YNB containing 2% glucose (Glu), 2% potassium acetate (Ace), or 2% Ace + secoemestrin C (1) (16, 32, or 64 μg/mL) and cultured for 4 h at 28 °C. ICL mRNA expression was analyzed by RT-PCR. Glyceraldehyde-3-phosphate dehydrogenase (GPDH), a housekeeping gene, was measured as a loading control.
We further investigated the effects of secoemestrin C (1) on ICL mRNA expression in C. albicans using a semi-quantitative reverse-transcription polymerase chain reaction (RT-PCR). […] GPDH expression was detected in all treatment conditions.
Growth phenotype and ICL expression analysis were performed using C. albicans strains SC5314 (wild type), MRC10 (Δicl), and MRC11 (Δicl + ICL) according to a previously described method. […] Semi-quantitative RT-PCR was conducted using ICL-specific primers: 5′-[…]-3′ (forward) and 5′-TAGATTCAGCTTCA GCCATCAAAGC-3′ (reverse). […]

The mark [5] stands for this setting: Candida albicans, SC5314, 72 h, YNB with 2% glucose, read-out: MIC.
Where [6] appears, read: Candida albicans, SC5314, 72 h, YNB with 2% potassium acetate, read-out: MIC.
The mark [7] stands for this setting: Candida albicans, ATCC10231, 72 h, ATCC10231, YNB with 2% glucose, 72 h, 28 °C, read-out: MIC.
[8] abbreviates: Candida albicans, ATCC10231, 72 h, ATCC10231, YNB with 2% potassium acetate, 72 h, 28 °C, read-out: MIC.
The mark [9] stands for this setting: Candida albicans, ATCC10231, Table 1: growth of C. albicans ATCC10231, read-out: MIC.
Setting [10] is: YNB with 2% glucose, read-out: MIC.
Where [11] appears, read: YNB with 2% potassium acetate, read-out: MIC.
Setting [12] is: Candida albicans, ATCC10231, Table 1: growth of C. albicans ATCC10231.

T1 sequence (Q9P8Q7 whole entry): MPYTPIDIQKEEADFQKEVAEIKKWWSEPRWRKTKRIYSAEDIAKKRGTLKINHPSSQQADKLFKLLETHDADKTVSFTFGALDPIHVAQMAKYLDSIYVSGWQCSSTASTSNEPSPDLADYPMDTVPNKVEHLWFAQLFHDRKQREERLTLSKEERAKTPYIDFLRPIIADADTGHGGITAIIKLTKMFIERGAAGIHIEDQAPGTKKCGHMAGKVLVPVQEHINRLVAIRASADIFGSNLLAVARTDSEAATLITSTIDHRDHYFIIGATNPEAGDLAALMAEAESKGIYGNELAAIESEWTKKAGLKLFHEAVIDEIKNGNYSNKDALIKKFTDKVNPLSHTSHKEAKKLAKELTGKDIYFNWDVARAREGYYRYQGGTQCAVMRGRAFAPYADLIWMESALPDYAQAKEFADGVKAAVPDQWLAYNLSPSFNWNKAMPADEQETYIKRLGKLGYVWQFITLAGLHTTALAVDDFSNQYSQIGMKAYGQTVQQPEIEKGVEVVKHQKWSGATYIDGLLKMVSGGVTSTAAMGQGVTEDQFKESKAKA

As a reminder, the IC50 is the concentration needed to halve the response being measured. For `O=C(O)CC[N+](=O)[O-]` [3-Nitropropionate, 3-nitropropionate, reference compound], in [1], the IC50 was 21.8 ± 1.38 µM. Also, the MIC in the test on C. albicans ATCC10231 (Table 1: growth of C. albicans ATCC10231) is over 128 µg/mL.
In the case of `C[C@@H]1[C@H](O)[C@@H](C)/C=C/C=C/C=C/C=C/C=C/C=C/C=C/[C@H](O[C@@H]2O[C@H](C)[C@@H](O)[C@H](N)[C@@H]2O)C[C@@H]2O[C@](O)(C[C@@H](O)C[C@@H](O)[C@H](O)CC[C@@H](O)C[C@@H](O)CC(=O)O[C@H]1C)C[C@H](O)[C@H]2C(=O)O` [Amphotericin B, amphotericin B, reference compound], the MIC with C. albicans SC5314 (setting [5]) is 0.5 µg/mL (≈ 0.541 µM); in the test with C. albicans SC5314 (setting [6]), 0.5 µg/mL (≈ 0.541 µM); with C. albicans ATCC10231 (setting [7]), 0.5 µg/mL (≈ 0.541 µM); in the test with C. albicans ATCC10231 (setting [8]), 0.5 µg/mL (≈ 0.541 µM); in the test on C. albicans ATCC10231 (setting [9]), 0.5 µg/mL (≈ 0.541 µM); in the test with C. albicans ATCC10259 (setting [10]) it was 1 µg/mL (≈ 1.08 µM). Also, the MIC in the test on C. albicans ATCC10259 (setting [11]) came to 0.5 µg/mL (≈ 0.541 µM); in the test on C. albicans ATCC11006 (setting [10]) it was 0.5 µg/mL (≈ 0.541 µM); in the test on C. albicans ATCC11006 (setting [11]) it was 0.5 µg/mL (≈ 0.541 µM); with C. albicans ATCC18804 (setting [10]), 1 µg/mL (≈ 1.08 µM); with C. albicans ATCC18804 (setting [11]), 1 µg/mL (≈ 1.08 µM).
Turning to `COc1ccc(C(=O)O[C@H]2C=COC=C3C=C4C(=O)N(C)C(=O)C(=O)N4[C@@H]32)cc1Oc1cc(C=O)ccc1O` [Dethiosecoemestrin (2), dethiosecoemestrin], the “inhibitory activity toward ICL (in words)” value in test [1] was “no inhibitory activity”. Moreover, in test [1], the IC50 was over 241 µM. Besides, the MIC with C. albicans SC5314 (setting [5]) and with C. albicans ATCC10231 (setting [9]) was over 128 µg/mL throughout.
With `COc1ccc2cc1Oc1cc(ccc1O)C(O)C13SSC4(C(=O)N1C)C(O)C1=COC=CC(OC2=O)C1N4C3=O` (stereo not drawn) [Emestrin (3), emestrin], the “inhibitory activity toward ICL (in words)” value in test [1] was “not inhibitors of ICL”; in test [1] (listed as emestrin (3)) it was “no inhibitory activity”. Moreover, the IC50 in test [1] is over 214 µM. The MIC in the test on C. albicans SC5314 (setting [5]) and against C. albicans ATCC10231 (setting [12]) was over 128 µg/mL in each case.
As to `COc1ccc2cc1Oc1cc(ccc1O)C(O)C13SSSC4(C(=O)N1C)C(O)C1=COC=CC(OC2=O)C1N4C3=O` (stereo not drawn) [Emestrin B (4), emestrin B], in test [1], the “inhibitory activity toward ICL (in words)” value is reported as “no inhibitory activity; also recorded: not inhibitors of ICL” and the IC50 was over 203 µM. In addition, the MIC in the test with C. albicans SC5314 (setting [5]) was over 128 µg/mL. For the same compound, the MIC in the test on C. albicans ATCC10231 (setting [12]) is over 128 µg/mL.
For the compound `COc1ccc(C(=O)O[C@H]2C=COC=C3[C@@H](O)[C@]45SSSS[C@H](C(=O)N4[C@@H]32)N(C)C5=O)cc1Oc1cc(C=O)ccc1O` [Secoemestrin C (1), secoemestrin C], in test [1] (enzyme activity not recovered by dialysis within 1 h), the “reversibility of binding to the enzyme” value was “irreversible”. Also, the ICL inhibition mechanism result in test [1] (kinetic analysis, Lineweaver–Burk plot) is “uncompetitive inhibitor”. In addition, the IC50 in test [1] is 4.77 ± 0.08 µM. The MIC in the test on C. albicans SC5314 (setting [5]) is over 128 µg/mL; with C. albicans SC5314 (setting [6]), 64 µg/mL (≈ 96.6 µM); in the test with C. albicans SC5314 (YNB with 2% glucose, 72 h), over 128 µg/mL; with C. albicans ATCC10231 (setting [7]) it was over 128 µg/mL; in the test with C. albicans ATCC10231 (setting [8]) it was 64 µg/mL (≈ 96.6 µM); with C. albicans ATCC10231 (setting [9]), over 128 µg/mL. In addition, the MIC is over 128 µg/mL against C. albicans ATCC10259 (YNB with 2% glucose); 32 µg/mL (≈ 48.3 µM) in the test on C. albicans ATCC10259 (YNB with 2% potassium acetate); over 128 µg/mL in the test on C. albicans ATCC11006 (YNB with 2% glucose); 64 µg/mL (≈ 96.6 µM) in the test on C. albicans ATCC11006 (YNB with 2% potassium acetate); over 128 µg/mL in the test on C. albicans ATCC18804 (YNB with 2% glucose); 64 µg/mL (≈ 96.6 µM) with C. albicans ATCC18804 (YNB with 2% potassium acetate). The same compound showed an MIC in [2] of 32 to 64 µg/mL (≈ 48.3 to 96.6 µM). The growth phenotype result was “normal phenotypes” in test [3] (2% glucose plus 64 μg/mL compound, all strains) and “failed to grow; also recorded: no growth” in test [3] (2% potassium acetate plus 64 μg/mL compound). For the same compound, the “intensity of the PCR band corresponding to the ICL product (ICL mRNA)” value in test [4] is listed as “decreased”.
